Values after ≈ are worked out from the molar mass of the structure shown. One block for each molecule: values may come before it.
Assays:
Assay in all cases: In vitro antibacterial activity, MIC, broth microdilution
Type in all cases: cell-based
[1] = tested on: Streptococcus pyogenes C 203; settings: Streptococcus pyogenes, C203; S. pyogenes C 203; MHB + 5% horse serum; 37° C., 18 hours; read-out: minimum inhibiting concentration MIC
Protocol: (§1) a) In vitro antibacterial activity The determination of the minimum inhibiting concentrations (MIC), with respect to Gram-positive and Gram-negative bacteria was carried out through the micromethod of gradual broth dilution in double series [National Committee for Clinical Laboratory Standards, 1990; Methods for dilution antimicrobial susceptibility tests for bacteria that grow aerobically; Approved standards […], Villanova, Pa.], by using Mueller Hinton Broth (MHB) as a culture medium. In the case of […] bacteria, horse serum at 5% (Streptococcus pneumoniae and Streptococcus pyogenes) was added to the medium. Roxithromycin and Clarithromycin [The Merck Index, XI Ed., No. 8253 and 2340, respectively] were used as reference macrolides. MIC, expressed as (μg/ml), were determined after incubation of the microplates at 37° C. for 18 hours, evaluating the lowest antibiotic concentration enabling the inhibition of bacterial development.

[2] = tested on: Klebsiella pneumoniae ZC 2; settings: Klebsiella pneumoniae, ZC2; K. pneumoniae ZC 2; MHB; 37° C., 18 hours; read-out: minimum inhibiting concentration MIC
Protocol: as §1

[3] = tested on: Streptococcus pyogenes A 26; settings: Streptococcus pyogenes, A26; S. pyogenes A 26; MHB + 5% horse serum; 37° C., 18 hours; read-out: minimum inhibiting concentration MIC
Protocol: as §1

[4] = tested on: Streptococcus pneumoniae BS 4; settings: Streptococcus pneumoniae, BS4; S. pneumoniae BS 4; MHB + 5% horse serum; 37° C., 18 hours; read-out: minimum inhibiting concentration MIC
Protocol: as §1

[5] = tested on: Streptococcus pneumoniae BS 3; settings: Streptococcus pneumoniae, BS3; S. pneumoniae BS 3; MHB + 5% horse serum; 37° C., 18 hours; read-out: minimum inhibiting concentration MIC
Protocol: as §1

[6] = tested on: Staphylococcus aureus PV 14; settings: Staphylococcus aureus, PV14; S. aureus PV 14; MHB; 37° C., 18 hours; read-out: minimum inhibiting concentration MIC
Protocol: as §1

[7] = tested on: Enterococcus faecalis ATCC 29212; settings: Enterococcus faecalis, ATCC29212; E. faecalis ATCC 29212; MHB; 37° C., 18 hours; read-out: minimum inhibiting concentration MIC
Protocol: as §1

[8] = tested on: Escherichia coli ATCC 25922; settings: Escherichia coli, ATCC25922; E. coli ATCC 25922; MHB; 37° C., 18 hours; read-out: minimum inhibiting concentration MIC
Protocol: as §1

SMILES: CC[C@H]1OC(=O)[C@H](C)[C@@H](O[C@H]2C[C@@](C)(OC)[C@@H](O)[C@H](C)O2)[C@H](C)[C@@H](O[C@@H]2O[C@H](C)C[C@H](N(C)C)[C@H]2O)[C@](C)(O)C[C@@H](C)/C(=N\OCCNCCNCc2ccccc2)[C@H](C)[C@@H](O)[C@]1(C)O [Compound 5, Erythromycin A (E)-9-[0-[2-[2-(phenylmethylamino)ethylamino]ethyl]oxime]]
MIC [1]: 0.0156 µg/mL
MIC [2]: 32 µg/mL (≈ 34.6 µM)
MIC [3]: 0.0312 µg/mL
MIC [4]: 0.0312 µg/mL
MIC [5]: 0.0156 µg/mL
MIC [6]: 1 µg/mL (≈ 1.08 µM)
MIC [7]: 4 µg/mL (≈ 4.32 µM)
MIC [8]: 8 µg/mL (≈ 8.65 µM)

SMILES: CC[C@H]1OC(=O)[C@H](C)[C@@H](O[C@H]2C[C@@](C)(OC)[C@@H](O)[C@H](C)O2)[C@H](C)[C@@H](O[C@@H]2O[C@H](C)C[C@H](N(C)C)[C@H]2O)[C@](C)(O)C[C@@H](C)/C(=N\OCCCCCCNCCCCCCNCc2ccccc2)[C@H](C)[C@@H](O)[C@]1(C)O [Compound 6, Erythromycin A (E)-9-[0-[6-[6-(phenylmethylamino)hexylamino]hexyl]oxime]]
MIC [1]: 0.0156 µg/mL
MIC [2]: 16 µg/mL (≈ 15.4 µM)
MIC [3]: 0.0312 µg/mL
MIC [4]: 0.0312 µg/mL
MIC [5]: 0.0156 µg/mL
MIC [6]: 0.25 µg/mL (≈ 0.241 µM)
MIC [7]: 8 µg/mL (≈ 7.71 µM)
MIC [8]: 4 µg/mL (≈ 3.86 µM)

SMILES: CC[C@H]1OC(=O)[C@H](C)[C@@H](O[C@H]2C[C@@](C)(OC)[C@@H](O)[C@H](C)O2)[C@H](C)[C@@H](O[C@@H]2O[C@H](C)C[C@H](N(C)C)[C@H]2O)[C@](C)(O)C[C@@H](C)/C(=N\OCCCCCCNCCCNCc2ccccc2)[C@H](C)[C@@H](O)[C@]1(C)O [Compound 7, Erythromycin A (E)-9-[0-[6-[3-(phenylmethylamino)propylamino]hexyl]oxime]]
MIC [1]: 0.0156 µg/mL
MIC [2]: 16 µg/mL (≈ 16.1 µM)
MIC [3]: 0.0312 µg/mL
MIC [4]: 0.0625 µg/mL
MIC [5]: 0.0625 µg/mL
MIC [6]: 0.5 µg/mL (≈ 0.502 µM)
MIC [7]: 4 µg/mL (≈ 4.02 µM)
MIC [8]: 4 µg/mL (≈ 4.02 µM)

SMILES: CC[C@H]1OC(=O)[C@H](C)[C@@H](O[C@H]2C[C@@](C)(OC)[C@@H](O)[C@H](C)O2)[C@H](C)[C@@H](O[C@@H]2O[C@H](C)C[C@H](N(C)C)[C@H]2O)[C@](C)(O)C[C@@H](C)/C(=N\OCCCCCCNCCCCCNCc2ccccc2)[C@H](C)[C@@H](O)[C@]1(C)O [Compound 8, Erythromycin A (E)-9-[0-[6-[5-(phenylmethylamino)pentylamino]hexyl]oxime]]
MIC [1]: 0.0078 µg/mL
MIC [2]: 16 µg/mL (≈ 15.6 µM)
MIC [3]: 0.0312 µg/mL
MIC [4]: 0.5 µg/mL
MIC [5]: 0.25 µg/mL
MIC [6]: 0.5 µg/mL (≈ 0.489 µM)
MIC [7]: 8 µg/mL (≈ 7.82 µM)
MIC [8]: 4 µg/mL (≈ 3.91 µM)

SMILES: CC[C@H]1OC(=O)[C@H](C)[C@@H](O[C@H]2C[C@@](C)(OC)[C@@H](O)[C@H](C)O2)[C@H](C)[C@@H](O[C@@H]2O[C@H](C)C[C@H](N(C)C)[C@H]2O)[C@](C)(O)C[C@@H](C)/C(=N\OCCNCCCCCCCCNCc2ccccc2)[C@H](C)[C@@H](O)[C@]1(C)O [Compound 9, Erythromycin A (E)-9-[0-[2-[8-(phenylmethyiamino)octylamino]ethyl]oxime]]
MIC [1]: 0.0039 µg/mL
MIC [2]: 16 µg/mL (≈ 15.9 µM)
MIC [3]: 0.0078 µg/mL
MIC [4]: 0.0078 µg/mL
MIC [5]: 0.0078 µg/mL
MIC [6]: 0.25 µg/mL (≈ 0.248 µM)
MIC [7]: 4 µg/mL (≈ 3.96 µM)
MIC [8]: 4 µg/mL (≈ 3.96 µM)

SMILES: CC[C@H]1OC(=O)[C@H](C)[C@@H](O[C@H]2C[C@@](C)(OC)[C@@H](O)[C@H](C)O2)[C@H](C)[C@@H](O[C@@H]2O[C@H](C)C[C@H](N(C)C)[C@H]2O)[C@](C)(O)C[C@@H](C)/C(=N\OCCCCCNCCCCCCNCc2ccccc2)[C@H](C)[C@@H](O)[C@]1(C)O [Compound 11, Erythromycin A (E)-9-[0-[5-[6-(phenylmethylamino)hexylamino]pentyl]oxime]]
MIC [1]: 0.0312 µg/mL
MIC [2]: 16 µg/mL (≈ 15.6 µM)
MIC [3]: 0.0625 µg/mL
MIC [4]: 0.5 µg/mL
MIC [5]: 0.25 µg/mL
MIC [6]: 0.5 µg/mL (≈ 0.489 µM)
MIC [7]: 16 µg/mL (≈ 15.6 µM)
MIC [8]: 8 µg/mL (≈ 7.82 µM)

SMILES: CC[C@H]1OC(=O)[C@H](C)[C@@H](O[C@H]2C[C@@](C)(OC)[C@@H](O)[C@H](C)O2)[C@H](C)[C@@H](O[C@@H]2O[C@H](C)C[C@H](N(C)C)[C@H]2O)[C@](C)(O)C[C@@H](C)/C(=N\OCCCNCCCCCCNCc2ccccc2)[C@H](C)[C@@H](O)[C@]1(C)O [Compound 12, Erythromycin A (E)-9-[0-[3-[6-(phenylmethylamino)hexylamino]propyl]oxime]]
MIC [1]: 0.0312 µg/mL
MIC [2]: 32 µg/mL (≈ 32.1 µM)
MIC [3]: 0.0625 µg/mL
MIC [4]: 0.5 µg/mL
MIC [5]: 0.25 µg/mL
MIC [6]: 0.25 µg/mL (≈ 0.251 µM)
MIC [7]: 16 µg/mL (≈ 16.1 µM)
MIC [8]: 8 µg/mL (≈ 8.04 µM)

Results, then the molecule that gave them:

MIC [1]: 0.0039 µg/mL
MIC [2]: 8 µg/mL (≈ 8.02 µM)
MIC [3]: 0.0156 µg/mL
MIC [4]: 0.0156 µg/mL
MIC [5]: 0.0078 µg/mL
MIC [6]: 0.25 µg/mL (≈ 0.251 µM)
MIC [7]: 4 µg/mL (≈ 4.01 µM)
MIC [8]: 4 µg/mL (≈ 4.01 µM)
SMILES: CC[C@H]1OC(=O)[C@H](C)[C@@H](O[C@H]2C[C@@](C)(OC)[C@@H](O)[C@H](C)O2)[C@H](C)[C@@H](O[C@@H]2O[C@H](C)C[C@H](N(C)C)[C@H]2O)[C@](C)(O)C[C@@H](C)/C(=N\OCCNCCCCCCNCc2ccccc2O)[C@H](C)[C@@H](O)[C@]1(C)O [Compound 24, Erythromycin A (E)-9-[0-[2-[6-[(2-hydroxyphenyl)methylamino]hexylamino]ethyl]oxime]]

MIC [1]: 0.0312 µg/mL
MIC [2]: 16 µg/mL (≈ 16 µM)
MIC [3]: 0.125 µg/mL
MIC [4]: 0.25 µg/mL
MIC [5]: 0.25 µg/mL
MIC [6]: 0.125 µg/mL (≈ 0.125 µM)
MIC [7]: 8 µg/mL (≈ 8.02 µM)
MIC [8]: 8 µg/mL (≈ 8.02 µM)
SMILES: CC[C@H]1OC(=O)[C@H](C)[C@@H](O[C@H]2C[C@@](C)(OC)[C@@H](O)[C@H](C)O2)[C@H](C)[C@@H](O[C@@H]2O[C@H](C)C[C@H](N(C)C)[C@H]2O)[C@](C)(O)C[C@@H](C)/C(=N\OCCNCCCCCCNCc2cccc(O)c2)[C@H](C)[C@@H](O)[C@]1(C)O [Compound 25, Erythromycin A (E)-9-[0-[2-[6-[(3-hydroxyphenyl)methylamino]hexylamino]ethyl]oxime]]

MIC [1]: 0.125 µg/mL
MIC [2]: 32 µg/mL (≈ 32.1 µM)
MIC [3]: 0.25 µg/mL
MIC [4]: 0.25 µg/mL
MIC [5]: 0.25 µg/mL
MIC [6]: 0.125 µg/mL (≈ 0.125 µM)
MIC [7]: 16 µg/mL (≈ 16 µM)
MIC [8]: 16 µg/mL (≈ 16 µM)
SMILES: CC[C@H]1OC(=O)[C@H](C)[C@@H](O[C@H]2C[C@@](C)(OC)[C@@H](O)[C@H](C)O2)[C@H](C)[C@@H](O[C@@H]2O[C@H](C)C[C@H](N(C)C)[C@H]2O)[C@](C)(O)C[C@@H](C)/C(=N\OCCNCCCCCCNCc2ccc(O)cc2)[C@H](C)[C@@H](O)[C@]1(C)O [Compound 28, Erythromycin A (E)-9-[0-[2-[6-[(4-hydroxyphenyl)methylamino]hexylamino]ethyl]oxime]]

MIC [1]: 0.0039 µg/mL
MIC [2]: 16 µg/mL (≈ 16.5 µM)
MIC [3]: 0.0078 µg/mL
MIC [4]: 0.0078 µg/mL
MIC [5]: 0.0078 µg/mL
MIC [6]: 0.5 µg/mL (≈ 0.515 µM)
MIC [7]: 4 µg/mL (≈ 4.12 µM)
MIC [8]: 4 µg/mL (≈ 4.12 µM)
SMILES: CC[C@H]1OC(=O)[C@H](C)[C@@H](O[C@H]2C[C@@](C)(OC)[C@@H](O)[C@H](C)O2)[C@H](C)[C@@H](O[C@@H]2O[C@H](C)C[C@H](N(C)C)[C@H]2O)[C@](C)(O)C[C@@H](C)/C(=N\OCCNCCCCCCNCc2ccco2)[C@H](C)[C@@H](O)[C@]1(C)O [Compound 31]

MIC [1]: 0.0156 µg/mL
MIC [2]: 16 µg/mL (≈ 15 µM)
MIC [3]: 0.0625 µg/mL
MIC [4]: 0.0312 µg/mL
MIC [5]: 0.0625 µg/mL
MIC [6]: 0.5 µg/mL (≈ 0.469 µM)
MIC [7]: 2 µg/mL (≈ 1.88 µM)
MIC [8]: 4 µg/mL (≈ 3.75 µM)
SMILES: CC[C@H]1OC(=O)[C@H](C)[C@@H](O[C@H]2C[C@@](C)(OC)[C@@H](O)[C@H](C)O2)[C@H](C)[C@@H](O[C@@H]2O[C@H](C)C[C@H](N(C)C)[C@H]2O)[C@](C)(O)C[C@@H](C)/C(=N\OCCNCCCCCCNCc2cc(Cl)cc(Cl)c2O)[C@H](C)[C@@H](O)[C@]1(C)O [Compound 32, Erythromycin A (E)-9-[0-[2-[6-[(3,5-dichloro-2-hydroxyphenyl)methylamino]hexylamino]ethyl]oxime]]

MIC [1]: 0.0078 µg/mL
MIC [2]: 32 µg/mL (≈ 30.7 µM)
MIC [3]: 0.0625 µg/mL
MIC [4]: 0.0625 µg/mL
MIC [5]: 0.0625 µg/mL
MIC [6]: 0.5 µg/mL (≈ 0.48 µM)
MIC [7]: 16 µg/mL (≈ 15.4 µM)
MIC [8]: 8 µg/mL (≈ 7.68 µM)
SMILES: CC[C@H]1OC(=O)[C@H](C)[C@@H](O[C@H]2C[C@@](C)(OC)[C@@H](O)[C@H](C)O2)[C@H](C)[C@@H](O[C@@H]2O[C@H](C)C[C@H](N(C)C)[C@H]2O)[C@](C)(O)C[C@@H](C)/C(=N\OCCNCCCCCCNCc2ccc(O)c([N+](=O)[O-])c2)[C@H](C)[C@@H](O)[C@]1(C)O [Compound 36, Erythromycin A (E)-9-[0-[2-[6-[(4-hydroxy-3-nitrophenyl)methylamino]hexylamino]ethyl]oxime]]
